# Measured values published in ChEMBL document CHEMBL5050840, “3-(1-oxoisoindolin-2-yl)piperidine-2,6-dione derivatives and uses thereof” (2021).
# Active and inactive are the calls of the source. No cut-off for these calls is given here.
# How the values were obtained:
# [1] = Induction of IKZF2 degradation in human GripTite 293 MSR cells assessed as reduction in IKZF2 level measured by PathHunter assay; type: cell-based
# [2] = tested on: GripTite 293 MSR; assay: Induction of IKZF2 degradation in human GripTite 293 MSR cells at 10 uM assessed as reduction in IKZF2 level measured by PathHunter assay relative to control; type: cell-based; parameters: scale not given: the % may be the effect or the level left
# [3] = tested on: PBMC; assay: Effect of compound on human PBMCs at 10 uM assessed as decrease in CD4+ T cells proliferation; type: functional, cell-based
# [4] = tested on: PBMC; assay: Effect of compound on human PBMCs at 10 uM assessed as fold increase in IL-2 producing cells; type: functional, cell-based
Compound,EC50 [1] [nM],other results
"O=C1CCC(N2Cc3cc(C4CCCN(Cc5ccccc5)CC4)ccc3C2=O)C(=O)N1 (single isomer, unassigned; form 1)",170,–
CN1CC=C(c2ccc3c(c2)CN(C2CCC(=O)NC2=O)C3=O)CC1 (stereo not given),–,Activity [2]: 35%
"O=C1CCC(N2Cc3cc(C4CCCN(Cc5ccccc5)CC4)ccc3C2=O)C(=O)N1 (single isomer, unassigned; form 2)",210,–
O=C1CCC(N2Cc3cc(C4CCN(Cc5ccccc5)CC4)ccc3C2=O)C(=O)N1 (stereo not given),–,Activity [3]: Active; Activity [4]: Active

# Further lines, with some results ahead:
EC50 [1] [nM],Compound,other results
590,"O=C1CCC(N2Cc3cc(C4CCN([C@@H](CO)c5ccccc5)CC4)ccc3C2=O)C(=O)N1 (single isomer, unassigned)",–
850,"O=C1CCC(N2Cc3cc(C4CCN(C(CO)c5ccccc5)CC4)ccc3C2=O)C(=O)N1 (single isomer, unassigned)",–
17,"C[C@H](c1ccccc1)N1CCC(c2ccc3c(c2)CN(C2CCC(=O)NC2=O)C3=O)CC1 (single isomer, unassigned)",–
7,CC(c1ccccc1)N1CCC(c2ccc3c(c2)CN(C2CCC(=O)NC2=O)C3=O)CC1 (racemic),–
9,"CC(c1ccccc1)N1CCC(c2ccc3c(c2)CN(C2CCC(=O)NC2=O)C3=O)CC1 (single isomer, unassigned)",–
